{
  "source": "paper PMC10107428",
  "about": "(Chemistry (Weinheim an Der Bergstrasse, Germany), 2022)",
  "target": "T1, Galectin-8 (Gal8-6FW) (Homo sapiens, UniProt O00214)",
  "T1 sequence (O00214 1-317)": "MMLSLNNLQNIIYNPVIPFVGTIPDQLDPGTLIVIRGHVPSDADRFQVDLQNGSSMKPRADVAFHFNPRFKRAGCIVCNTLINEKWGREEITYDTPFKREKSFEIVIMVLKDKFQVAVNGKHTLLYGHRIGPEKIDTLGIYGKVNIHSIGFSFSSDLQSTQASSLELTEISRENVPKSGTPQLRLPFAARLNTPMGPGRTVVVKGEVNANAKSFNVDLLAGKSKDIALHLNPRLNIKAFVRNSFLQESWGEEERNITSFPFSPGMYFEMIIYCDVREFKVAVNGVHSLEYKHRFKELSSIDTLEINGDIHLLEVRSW",
  "assay": "[…] NMR titration",
  "assay_type": "binding",
  "data": [
    {"compound": "OC[C@H]1O[C@@H](O[C@H]2[C@H](O)[C@@H](O)C(O)O[C@@H]2CO)[C@H](O)[C@@H](O)[C@H]1O", "note": "(stereo partly shown) [lactose]", "values": [
      {"measurement": "19F NMR titration", "value": "Lactose binds to both domains of Gal8 with very similar and weak affinities"}
    ]}
  ]
}
